pIC50: −log10 of the molar value.
Assays:
[1] = biological target: T1, Sodium channel protein type 5 subunit alpha (Homo sapiens, UniProt Q14524); assay: Inhibition of 0.1 Hz stimulated human Nav1.5alpha expressed in HEK293 cells assessed as inhibition of late sodium current with 3 compound additions for 7 to 8 mins at holding potential -120 mV in presence of late sodium current activator tefluthrin/ATX2 measured immediately after third compound addition by PatchXpress method; assay type: cell-based
[2] = biological target: T2, Nav1.5 (peak sodium current, use-dependent block) (Homo sapiens, UniProt Q14524); assay: (§1) Inhibition of 3 Hz stimulated human Nav1.5alpha expressed in HEK293 cells assessed as use dependent block of peak sodium current at 10 uM with 3 compound additions at 60 sec intervals at holding potential -100 mV incubated for 320 sec after third compound addition followed by second period of 3 Hz stimulation by PatchXpress method relative to control; assay type: cell-based; conditions: HEK293 cells expressing human Nav1.5alpha
[3] = Half life in human microsomes; assay type: ADME, Microsome
[4] = Half life in rat microsomes; assay type: ADME, Microsome
[5] = Half life in dog microsomes; assay type: ADME, Canis lupus familiaris, Microsome
[6] = biological target: T1, Sodium channel protein type 5 subunit alpha; conditions: HEK293, human, read-out: INH
Description: Inhibition of 0.1 Hz stimulated human Nav1.5alpha expressed in HEK293 cells assessed as inhibition of late sodium current at 10 uM with 3 compound additions for 7 to 8 mins at holding potential -120 mV in presence of late sodium current activator tefluthrin/ATX2 measured immediately after third compound addition by PatchXpress method relative to control

Oryctolagus cuniculus = organism: Oryctolagus cuniculus; assay: Inhibition of Nav1.5 in isolated rabbit heart assessed as inhibition of ATX2-induced prolongation of mean action potential duration at 10 to 100000 nM relative to control
Heart = assay: Protection against […]/clofilium-induced ventricular arrhythmias in isolated rabbit heart assessed as torsade des pointes at 14 uM relative to control; assay type: functional, Oryctolagus cuniculus, Cardiac ventricle
[7] = biological target: Sodium channel protein type 1 subunit alpha (Homo sapiens, UniProt P35498); assay: Inhibition of 10 Hz stimulated Nav1.1 (unknown origin) assessed as inhibition of peak sodium current at 10 uM by automated patch clamp method relative to control
[8] = biological target: T2, Nav1.5 (peak sodium current, use-dependent block); assay: as §1, with “at 1” for “at 10”; assay type: cell-based; conditions: HEK293 cells expressing human Nav1.5alpha
[9] = biological target: T2, Nav1.5 (peak sodium current, use-dependent block); assay: as §1, with “at 0.3” for “at 10”; assay type: cell-based; conditions: HEK293 cells expressing human Nav1.5alpha
[10] = Lipophilicity, log D of compound; assay type: physicochemical; conditions: octanol/water

T2 sequence (Q14524 whole entry): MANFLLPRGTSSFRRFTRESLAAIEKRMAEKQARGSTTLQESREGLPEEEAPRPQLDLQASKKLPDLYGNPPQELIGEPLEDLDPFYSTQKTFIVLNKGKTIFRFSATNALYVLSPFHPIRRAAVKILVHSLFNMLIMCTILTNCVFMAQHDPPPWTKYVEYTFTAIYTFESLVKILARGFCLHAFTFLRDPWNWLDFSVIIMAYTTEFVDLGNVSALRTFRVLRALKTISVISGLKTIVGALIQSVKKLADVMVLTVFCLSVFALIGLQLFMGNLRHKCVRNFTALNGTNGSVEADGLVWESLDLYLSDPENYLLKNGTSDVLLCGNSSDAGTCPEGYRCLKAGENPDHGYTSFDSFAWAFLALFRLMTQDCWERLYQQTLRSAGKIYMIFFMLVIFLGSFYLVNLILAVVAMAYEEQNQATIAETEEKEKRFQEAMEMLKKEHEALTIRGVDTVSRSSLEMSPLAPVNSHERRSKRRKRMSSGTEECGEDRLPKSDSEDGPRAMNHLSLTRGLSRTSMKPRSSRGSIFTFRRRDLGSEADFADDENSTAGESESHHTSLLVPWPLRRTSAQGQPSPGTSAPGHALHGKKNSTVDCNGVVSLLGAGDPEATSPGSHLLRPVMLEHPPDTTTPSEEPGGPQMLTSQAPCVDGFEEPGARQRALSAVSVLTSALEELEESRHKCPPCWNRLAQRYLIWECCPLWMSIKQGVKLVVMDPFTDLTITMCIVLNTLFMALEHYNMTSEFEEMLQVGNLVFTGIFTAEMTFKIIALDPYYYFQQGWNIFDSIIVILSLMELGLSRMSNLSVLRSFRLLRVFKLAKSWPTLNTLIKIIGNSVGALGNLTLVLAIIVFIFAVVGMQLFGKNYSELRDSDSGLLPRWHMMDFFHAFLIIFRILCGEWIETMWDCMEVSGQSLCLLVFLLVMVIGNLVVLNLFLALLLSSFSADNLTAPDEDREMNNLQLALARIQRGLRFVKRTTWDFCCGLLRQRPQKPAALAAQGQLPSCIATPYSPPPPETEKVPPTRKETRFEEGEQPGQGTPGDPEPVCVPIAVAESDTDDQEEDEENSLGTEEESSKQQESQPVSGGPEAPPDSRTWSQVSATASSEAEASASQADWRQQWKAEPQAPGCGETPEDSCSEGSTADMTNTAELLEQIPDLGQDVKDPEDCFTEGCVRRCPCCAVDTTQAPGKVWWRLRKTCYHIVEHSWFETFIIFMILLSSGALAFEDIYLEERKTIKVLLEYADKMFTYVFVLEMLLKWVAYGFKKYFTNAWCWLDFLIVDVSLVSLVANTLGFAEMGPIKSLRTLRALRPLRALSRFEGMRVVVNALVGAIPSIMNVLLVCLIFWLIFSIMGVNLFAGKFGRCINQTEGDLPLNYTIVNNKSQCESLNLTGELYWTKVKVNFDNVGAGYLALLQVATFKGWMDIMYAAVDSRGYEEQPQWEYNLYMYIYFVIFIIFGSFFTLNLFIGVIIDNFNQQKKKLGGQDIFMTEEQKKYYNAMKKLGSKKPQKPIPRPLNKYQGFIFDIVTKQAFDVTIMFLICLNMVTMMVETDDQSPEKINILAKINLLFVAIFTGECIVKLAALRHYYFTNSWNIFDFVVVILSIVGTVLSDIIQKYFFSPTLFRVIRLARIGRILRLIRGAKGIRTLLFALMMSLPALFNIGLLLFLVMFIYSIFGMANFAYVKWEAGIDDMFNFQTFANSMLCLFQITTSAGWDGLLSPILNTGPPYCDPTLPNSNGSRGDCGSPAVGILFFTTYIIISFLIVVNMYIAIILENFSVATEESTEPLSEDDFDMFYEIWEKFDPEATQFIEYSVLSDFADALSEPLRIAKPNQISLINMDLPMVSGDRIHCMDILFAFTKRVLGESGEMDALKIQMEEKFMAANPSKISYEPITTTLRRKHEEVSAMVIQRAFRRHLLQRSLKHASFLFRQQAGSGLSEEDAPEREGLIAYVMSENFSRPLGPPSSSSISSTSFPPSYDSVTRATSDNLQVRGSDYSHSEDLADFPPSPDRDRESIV
T1 sequence (Q14524 whole entry): as above

| SMILES | half-life [3] | half-life [4] | half-life [5] | inhibition [7] | logD [10] | pIC50 [1] | inhibition at 320 s, 10 µM [2] | inhibition at 10 µM [6] | inhibition (Oryctolagus cuniculus) | Activity (Heart) | inhibition at 320 s, 1 µM [8] | inhibition at 320 s, 0.3 µM [9] |
| --- | --- | --- | --- | --- | --- | --- | --- | --- | --- | --- | --- | --- |
| O=c1[nH]nc2ccc(-c3ccc(OC(F)(F)F)cc3)cn12 | 6.5 h | 1.48 h | 3.17 h |  |  | 5.72 | 24% | ≥ 70% |  |  |  |  |
| COc1ccccc1OCC(O)CN1CCN(CC(=O)Nc2c(C)cccc2C)CC1 (centres undefined) [RANOLAZINE] |  |  |  |  |  |  |  |  | 60% | 40% |  |  |
| CCc1noc(Cn2nc3ccc(-c4ccc(OC(F)(F)F)cc4)cn3c2=O)n1 |  |  |  |  |  | 5.40 |  | ≥ 70% |  |  |  |  |
| O=c1n(Cc2nc(C3CC3)co2)nc2ccc(-c3ccc(OC(F)(F)F)cc3)cn12 | 0.65 h | 0.65 h | 1.8 h |  |  | 5.52 |  | ≥ 70% |  |  |  |  |
| Cn1cnc(Cn2nc3ccc(-c4ccc(OC(F)(F)F)cc4)cn3c2=O)n1 |  |  |  |  |  | < 5.00 |  |  |  |  |  |  |
| Cc1nc(Cn2nc3ccc(-c4ccc(OC(F)(F)F)cc4)cn3c2=O)no1 | 6.58 h | 6.05 h |  | 27% |  | 5.48 | 10% | ≥ 70% |  |  |  |  |

Continued, in another order:

| half-life [3] | half-life [4] | half-life [5] | inhibition [7] | logD [10] | SMILES | pIC50 [1] | inhibition at 320 s, 10 µM [2] | inhibition at 10 µM [6] | inhibition (Oryctolagus cuniculus) | Activity (Heart) | inhibition at 320 s, 1 µM [8] | inhibition at 320 s, 0.3 µM [9] |
| --- | --- | --- | --- | --- | --- | --- | --- | --- | --- | --- | --- | --- |
| 6.58 h | 6.58 h | 4.78 h | 56% |  | O=c1n(Cc2nnc(C3CC3)o2)nc2ccc(-c3ccc(Oc4ccc(F)cc4)cc3)cn12 | 3.13 |  | ≥ 70% |  |  | 69% |  |
| 2.12 h | 1.42 h | 3.62 h |  | 3 | Cc1noc(Cn2nc3ccc(-c4ccc(Oc5ccc(F)cc5)cc4)cn3c2=O)n1 | 3.67 |  | ≥ 70% |  |  |  | 33% |
| 1.35 h | 0.533 h | 3.02 h | 56% | 2.8 | O=c1n(Cc2noc(CO)n2)nc2ccc(-c3ccc(Oc4ccc(F)cc4)cc3)cn12 | 3.01 | 21% | ≥ 70% |  |  |  |  |

Source: ChEMBL document CHEMBL3808373 (Bioorg Med Chem Lett, 2016)
